In patent US11834450B2, “Compounds having ((3-nitrophenyl)sulfonyl)acetamide as BCL-2 inhibitors” (Eil Therapeutics, Inc., priority 2021, dated 2023):
Like-named read-outs stand apart in the source and are kept apart here.

Legend:
BCL-2 = target: T1, BCL-2 (Homo sapiens, UniProt P10415); test: BCL-2 TR-FRET Assay (primary PPI inhibition); format: binding; conditions: 60 min incubation; read-out: BCL2 (IC50 code, BCL-2 TR-FRET)
T1 construct: purchased BPS Bioscience #50222

BCL-XL = target: T2, BCL-XL (Homo sapiens, UniProt Q07817); test: BCL-XL TR-FRET Assay (primary PPI inhibition); format: binding; conditions: 60 min incubation; read-out: BCLxL (IC50 code, BCL-XL TR-FRET)
T2 construct: purchased BPS Bioscience #50223
T2 sequence (Q07817 whole entry): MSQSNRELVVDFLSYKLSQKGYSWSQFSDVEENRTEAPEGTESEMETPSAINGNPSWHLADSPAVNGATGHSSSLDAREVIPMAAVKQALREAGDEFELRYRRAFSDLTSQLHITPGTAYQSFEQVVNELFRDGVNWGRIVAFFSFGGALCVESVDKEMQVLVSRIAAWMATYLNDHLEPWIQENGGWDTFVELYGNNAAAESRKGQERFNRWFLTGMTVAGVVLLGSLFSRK
Method in brief: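 TR-FRET readout (ex 340 nm; em 620/665 nm; 60 μs delay, 500 μs integration) after a 60 min incubation. Mix: compound, 10.5 ng BCL-XL, BCL-XL peptide ligand at 1:80, plus anti-His Tb donor and dye acceptor each at 1:100.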

[1] = Cell viability assay HEK293 (CellTiter-Glo); format: cell-based; conditions: human, HEK293 cells, read-out: HEK293 (CC50 code)
Method in brief: (§1)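 Cells were seeded at 2000/well (HEK293, in DMEM, pre-incubated a day) or 4000/well (other lines, in RPMI-1640). Serially diluted compound was added and plates incubated 3 days at 37 °C, with viability read by CellTiter-Glo luminescence.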

MOLT-4 cells = test: Cell viability assay MOLT-4 (CellTiter-Glo); format: cell-based; conditions: Homo sapiens, read-out: MOLT-4 (CC50 code)
Method in brief: as §1

RS4-11 cells = test: Cell viability assay RS4-11 (CellTiter-Glo); format: cell-based; conditions: Homo sapiens, read-out: RS4-11 (CC50 code)
Method in brief: as §1

[2] = system: caspase-3 and -7 activities in RS4-11 cells; test: Cas-3/7 activation (Caspase-Glo 3/7) in RS4-11 cells; format: cell-based; conditions: Homo sapiens, 3.5 h at 37° C. and 30 min at r.t., read-out: Cas-3/7 (EC50 code)
Method in brief: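 RS4-11 cells were exposed to graded compound concentrations for 3.5 h at 37° C/5% CO2, then 30 min at room temperature. Caspase-3/7 activity was measured by luminescence after 30 min with a DEVD luminogenic substrate reagent.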

[3] = 72 h, MOLT-4 cells, 3 days, CellTiter-Glo
[4] = 72 h, RS4-11 cells, 3 days, CellTiter-Glo

T1 sequence (P10415 whole entry): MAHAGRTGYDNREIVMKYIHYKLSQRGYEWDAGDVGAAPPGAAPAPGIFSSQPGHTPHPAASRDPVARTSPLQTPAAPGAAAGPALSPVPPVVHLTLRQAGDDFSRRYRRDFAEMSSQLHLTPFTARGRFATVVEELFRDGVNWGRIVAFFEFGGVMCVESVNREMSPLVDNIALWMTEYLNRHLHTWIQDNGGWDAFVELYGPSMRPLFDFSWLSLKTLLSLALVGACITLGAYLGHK

Structure (SMILES) | IC50 (BCL-2) [nM] | IC50 (BCL-XL) [nM] | EC50 [2] [nM] | CC50 at 3 days [1] [nM] | CC50 (MOLT-4 cells; MOLT-4, 72 h) [nM] | CC50 (RS4-11 cells; RS4-11, 72 h) [nM] | CC50 (MOLT-4 cells; [3]) [nM] | CC50 (RS4-11 cells; [4]) [nM]
O=C(NS(=O)(=O)c1ccc(NCC2CCOCC2)c([N+](=O)[O-])c1)c1ccc(N2CCC(CN3C(=O)C4(CCCC4)C3c3cncc(Cl)c3)CC2)cc1Oc1cnc2[nH]ccc2c1 (stereo not drawn) [Compound 9, 4-[4-[[1-(5-chloro-3-pyridyl)-3-oxo-2-azaspiro[3.4]octan-2-yl]methyl]-1-piperidyl]-N-[3-nitro-4-(tetrahydropyran-4-ylmethylamino)phenyl]sulfonyl-2-(1H-pyrrolo[2,3-b]pyridin-5-yloxy)benzamide] | > 50 | 2000 to 4000 | > 250 | > 25000 | 2000 to 10000 | > 200 | – | –
CC1=CC[C@@H](CN2CCN(c3ccc(C(=O)NS(=O)(=O)c4ccc(NCC5CCOCC5)c([N+](=O)[O-])c4)c(Oc4cnc5[nH]ccc5c4)c3)CC2)[C@H](c2ccc(Cl)cc2)C1 [Compound 54, 4-[4-[[(1R,6R)-6-(4-chlorophenyl)-4-methyl-cyclohex-3-en-1-yl]methyl]piperazin-1-yl]-N-[3-nitro-4-(tetrahydropyran-4-ylmethylamino)phenyl]sulfonyl-2-(1H-pyrrolo[2,3-b]pyridin-5-yloxy)benzamide] | 10 to 50 | 2000 to 4000 | 100 to 250 | 10000 to 25000 | – | – | 2000 to 10000 | 100 to 200
O=C(NS(=O)(=O)c1ccc(NCC2CCOCC2)c([N+](=O)[O-])c1)c1ccc(N2CCN(CC(c3ccccc3)c3ccc(F)c(F)c3)CC2)cc1Oc1cnc2[nH]ccc2c1 (stereo not drawn) [Compound 13, 4-[4-[2-(3,4-difluorophenyl)-2-phenyl-ethyl]piperazin-1-yl]-N-[3 nitro-4-(tetrahydropyran-4-ylmethylamino)phenyl]sulfonyl-2 (1H-pyrrolo[2,3-b]pyridin-5-yloxy)benzamide] | > 50 | > 4000 | > 250 | ≤ 10000 | – | – | < 2000 | > 200
CC(C)C(=O)N1Cc2cc(Cl)ccc2C[C@H]1CN1CCN(c2ccc(C(=O)NS(=O)(=O)c3ccc(NCC4CCOCC4)c([N+](=O)[O-])c3)c(Oc3cnc4[nH]ccc4c3)c2)CC1 [Compound 57, 4-[4-[[(3S)-7-chloro-2-(2-methylpropanoyl)-3,4-dihydro-1H-isoquinolin-3-yl]methyl]piperazin-1-yl]-N-[3-nitro-4-(tetrahydropyran-4-ylmethylamino)phenyl]sulfonyl-2-(1H-pyrrolo[2,3-b]pyridin-5-yloxy)benzamide] | > 50 | > 4000 | > 250 | 10000 to 25000 | – | – | 2000 to 10000 | > 200
O=C(NS(=O)(=O)c1ccc(NCC2CCOCC2)c([N+](=O)[O-])c1)c1ccc(N2CCC(CN3Cc4ccccc4CC3c3ccccc3)CC2)cc1Oc1cnc2[nH]ccc2c1 (stereo not drawn) [Compound 41, N-[3-nitro-4-(tetrahydropyran-4-ylmethylamino)phenyl]sulfonyl-4-[4-[(3-phenyl-3,4-dihydro-1H-isoquinolin-2-yl)methyl]-1-piperidyl]-2-(1H-pyrrolo[2,3-b]pyridin-5-yloxy)benzamide] | > 50 | > 4000 | > 250 | > 25000 | – | – | 2000 to 10000 | > 200
COCCNc1ccc(S(=O)(=O)NC(=O)c2ccc(N3CCC(CN4CCCCC4c4ccc(Cl)cc4)CC3)cc2Oc2cnc3[nH]ccc3c2)cc1[N+](=O)[O-] (stereo not drawn) [Compound 61, 4-[4-[[2-(4-chlorophenyl)-1-piperidyl]methyl]-1-piperidyl]-N-[4-(2-methoxyethylamino)-3-nitro-phenyl]sulfonyl-2-(1H-pyrrolo[2,3-b]pyridin-5-yloxy)benzamide] | > 50 | ≤ 2000 | > 250 | > 25000 | – | – | 2000 to 10000 | 100 to 200
O=C(NS(=O)(=O)c1ccc(NCC2CCOCC2)c([N+](=O)[O-])c1)c1ccc(N2CCN(C[C@@H]3Cc4ccccc4CN3C(=O)C3CCNC3)CC2)cc1Oc1cnc2[nH]ccc2c1 (stereo partly drawn) [Compound 78, N-[3-nitro-4-(tetrahydropyran-4-ylmethylamino)phenyl]sulfonyl-4-[4-[[(3S)-2-(pyrrolidine-3-carbonyl)-3,4-dihydro-1H-isoquinolin-3-yl]methyl]piperazin-1-yl]-2-(1H-pyrrolo[2,3-b]pyridin-5-yloxy)benzamide] | 5 to 10 | 2000 to 4000 | > 250 | > 25000 | – | – | > 10000 | > 200
CC(C)C(=O)N1C[C@@H](CN2CCN(c3ccc(C(=O)NS(=O)(=O)c4ccc(NCC5CCOCC5)c([N+](=O)[O-])c4)c(Oc4cnc5[nH]ccc5c4)c3)CC2)[C@H](c2ccc(Cl)cc2)C1 [Compound 58, 4-[4-[[(3R,4R)-4-(4-chlorophenyl)-1-(2-methylpropanoyl)pyrrolidin-3-yl]methyl]piperazin-1-yl]-N-[3-nitro-4-(tetrahydropyran-4-ylmethylamino)phenyl]sulfonyl-2-(1H-pyrrolo[2,3-b]pyridin-5-yloxy)benzamide] | 10 to 50 | > 4000 | > 250 | > 25000 | – | – | 2000 to 10000 | > 200
O=C(NS(=O)(=O)c1ccc(NC2CCOC2)c([N+](=O)[O-])c1)c1ccc(N2CCC(CN3CCCCC3c3ccc(Cl)cc3)CC2)cc1Oc1cnc2[nH]ccc2c1 (stereo not drawn) [Compound 63, 4-[4-[[2-(4-chlorophenyl)-1-piperidyl]methyl]-1-piperidyl]-N-[3-nitro-4-(tetrahydrofuran-3-ylamino)phenyl]sulfonyl-2-(1H-pyrrolo[2,3-b]pyridin-5-yloxy)benzamide] | > 50 | 2000 to 4000 | > 250 | > 25000 | – | – | 2000 to 10000 | > 200

The next lines start with results.

IC50 (BCL-2) [nM] | IC50 (BCL-XL) [nM] | EC50 [2] [nM] | Structure (SMILES) | CC50 at 3 days [1] [nM] | CC50 (MOLT-4 cells; MOLT-4, 72 h) [nM] | CC50 (RS4-11 cells; RS4-11, 72 h) [nM] | CC50 (MOLT-4 cells; [3]) [nM] | CC50 (RS4-11 cells; [4]) [nM]
> 50 | ≤ 2000 | > 250 | CC(C)C(=O)N1Cc2ccccc2C[C@H]1CN1CCN(c2ccc(C(=O)NS(=O)(=O)c3ccc(NCC4CCOCC4)c([N+](=O)[O-])c3)c(Oc3cnc4[nH]ccc4c3)c2)CC1 [Compound 8, 4-[4-[[2-(2-methylpropanoyl)-3,4-dihydro-1H-isoquinolin-3-yl]methyl]piperazin-1-yl]-N-[3-nitro-4-(tetrahydropyran-4-ylmethylamino)phenyl]sulfonyl-2-(1H-pyrrolo[2,3-b]pyridin-5-yloxy)benzamide] | > 25000 | – | – | 2000 to 10000 | > 200
10 to 50 | > 4000 | > 250 | O=C(NS(=O)(=O)c1ccc(NCC2CCOCC2)c([N+](=O)[O-])c1)c1ccc(N2CCC(Cn3c(-c4ccc(Cl)cc4)nc4cccnc43)CC2)cc1Oc1cnc2[nH]ccc2c1 [Compound 51, 4-[4-[[2-(4-chlorophenyl)imidazo[4,5-b]pyridin-3-yl]methyl]-1-piperidyl]-N-[3-nitro-4-(tetrahydropyran-4-ylmethylamino)phenyl]sulfonyl-2-(1H-pyrrolo[2,3-b]pyridin-5-yloxy)benzamide] | > 25000 | – | – | 2000 to 10000 | > 200
> 50 | > 4000 | > 250 | CC(C)C(=O)N1Cc2cc(F)ccc2C[C@H]1CN1CCN(c2ccc(C(=O)NS(=O)(=O)c3ccc(NCC4CCOCC4)c([N+](=O)[O-])c3)c(Oc3cnc4[nH]ccc4c3)c2)CC1 [Compound 48, 4-[4-[[(3S)-7-fluoro-2-(2-methylpropanoyl)-3,4-dihydro-1H-isoquinolin-3-yl]methyl]piperazin-1-yl]-N-[3-nitro-4-(tetrahydropyran-4-ylmethylamino)phenyl]sulfonyl-2-(1H-pyrrolo[2,3-b]pyridin-5-yloxy)benzamide] | > 25000 | – | – | > 10000 | > 200
10 to 50 | ≤ 2000 | > 250 | O=C(NS(=O)(=O)c1ccc(NCC2CCOCC2)c([N+](=O)[O-])c1)c1ccc(N2CCN(C[C@@H]3Cc4ccccc4CN3C(=O)C3CC3)CC2)cc1Oc1cnc2[nH]ccc2c1 [Compound 5, 4-[4-[[(3S)-2-(cyclopropanecarbonyl)-3,4-dihydro-1H-isoquinolin-3-yl]methyl]piperazin-1-yl]-N-[3-nitro-4-(tetrahydropyran-4-ylmethylamino)phenyl]sulfonyl-2-(1H-pyrrolo[2,3-b]pyridin-5-yloxy)benzamide] | > 25000 | – | – | 2000 to 10000 | > 200
> 50 | > 4000 | > 250 | O=C(NS(=O)(=O)c1ccc(NCC2CCOCC2)c([N+](=O)[O-])c1)c1ccc(N2CCN(CC(c3ccccc3)c3ccccc3)CC2)cc1Oc1cnc2[nH]ccc2c1 [Compound 4, 4-[4-(2,2-diphenylethyl)piperazin-1-yl]-N-[3-nitro-4-(tetrahydropyran-4-ylmethylamino)phenyl]sulfonyl-2-(1H-pyrrolo[2,3-b]pyridin-5-yloxy)benzamide] | > 25000 | – | – | 2000 to 10000 | > 200
